Test results taken from US8115031B2, “Anti-inflammatory quinic acid derivatives for oral administration” (priority 2007, dated 2012).
Where two headings read alike, the source gives them in different places.

What was measured:
[1] = test system: Gluconobacter oxydans membrane fraction (quinate dehydrogenase); assay: degradation by bacterial enzymes (Gluconobacter oxydans membrane fraction); assay type: in vitro ADME
Procedure: FIG. 11 is a graph illustrating the results of an assay to compare stability of analog KZ-41 with that of quinic acid (QA) to degradation by bacterial enzymes. Percentage of drug remaining is shown on the Y-axis and the time exposed to the enzymes is shown on the X-axis. Results for quinic acid are indicated by the diamonds (♦) and results for KZ-41 are indicated by the squares (▪).
Experiments involving Gluconobacter oxydans were performed as described by Adachi et al. (Adachi, O., et al., (2003) Biosci. Biotechnol. Biochem. 67: 2124-2131). […]
Samples were evaporated to dryness at 30° C. and reconstituted with […] of 1:1 (v/v) mixture of 0.5% ammonia in water and acetonitrile. […] The spray needle voltage was set at 5,000 V, with the turbo gas temperature set at 400° C., and the declustering potential set at 60 V. For this study, samples were analyzed using a Q1 scan for product ion identification, a product ion scan for characterization of metabolites or enzymatic products and by using multiple-reaction monitoring (MRM) for quantitation of QA. Quantitation was performed using one set of MRM transitions: parent QA ions (MH^−/191)® selective daughter ions m/z 127. […] The peak areas, peak ratios, linear regression, assayed concentrations, and other quantitative analysis calculations were conducted Sciex Analyst 1.4 software. […]

[2] = levels of compound after oral (PO) or intravenous (IV) administration; assay type: in vivo; conditions: PO vs IV, FIG. 12
From the text: FIG. 12 is a graph illustrating the levels of analog KZ-41 when provided orally (PO) or by intravenous administration (IV).
Quinic acids are, however, catabolized by enzymes produced by gut bacteria. In rats, less than 10% of an orally-administered dose of quinic acid is recovered. The inventors therefore set out to produce quinic acid derivatives that retain or improve the beneficial effects of quinic acid, while being effective for oral administration. […] The compounds they have synthesized are not catabolized by bacterial enzymes, but are water-soluble, stable at room temperature, and effective for producing anti-inflammatory effects. […] These properties make the compounds attractive options for therapeutic use as anti-inflammatory agents.

[3] = rats, oral; cited from earlier work
[4] = test system: Gluconobacter oxydans membrane fraction (quinate dehydrogenase); conditions: three hours; previous results (Adachi et al. 2003); cited from earlier work
leukocyte populations = conditions: doxorubicin-induced leukopenia, rat; cited from earlier work

CCCNC(=O)C1(O)CC(O)C(O)C(O)C1 (stereo not drawn) [KZ-41, 1,3,4,5-tetrahydroxy-cyclohexane-carboxylic acid propylamide]
degradation by bacterial enzymes ([1]; enzymes produced by gut bacteria): not degraded | levels of compound, oral compared with intravenous (IV) administration [2]: available for absorption into the circulation

O=C(O)[C@]1(O)C[C@@H](O)[C@@H](O)[C@H](O)C1 [quinic acid]
degradation by bacterial enzymes [1]: degraded by enzymes produced by bacteria in the intestines | orally-administered dose recovered [3]: less than 10% | depletion of QA by G. oxydans membrane fraction [4]: complete depletion

B1: Neupogen: a granulocyte colony stimulator commonly used to treat chemotherapy-induced leukopenia (protein, chains of the INN, looked up)
chain: MTPLGPASSLPQSFLLKCLEQVRKIQGDGAALQEKLCATYKLCHPEELVLLGHSLGIPWAPLSSCPSQALQLAGCLSQLHSGLFLYQGLLQALEGISPELGPTLDTLQLDVADFATTIWQQMEELGMAPALQPTQGAMPAFASAFQRRAGGVLVASHLQSFLEVSYRVLRHLAQP
effect on leukocyte populations (leukocyte populations): increased only the neutrophil fraction
